These are literature values, as cited in patent US10028963B2, “Methods for treating intrapulmonary infections” (priority 2011, dated 2018).

For the data set the following is noted: patients treated for nosocomial pneumonia.

Regarding `CN(C)c1cc(NC(=O)CNC(C)(C)C)c(O)c2c1C[C@H]1C[C@H]3[C@H](N(C)C)C(=O)C(C(N)=O)=C(O)[C@@]3(O)C(=O)C1=C2O` [tigicycline], the “Mortality risk compared to other drugs” value is given as “increased mortality risk”.
